Experimental data as given in PubChem BioAssay (NCI).
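1) Cells in 96-well plates. 2) Compound, 48 h, 5 concentrations. 3) Linear interpolation between surrounding doses. 4) Unreached endpoint = highest concentration. GI50 marks 50% less growth. TGI: concentration producing complete growth inhibition.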

How the values were obtained:
Test in all cases: inhibition of tumour cell growth, NCI panel, 48 h
HCT-15 colon = tested on: HCT-15 colon
HCT-116 colon = tested on: HCT-116 colon
OVCAR-8 ovarian = tested on: OVCAR-8 ovarian
RXF 393 renal = tested on: RXF 393 renal
MCF7 breast = tested on: MCF7 breast
SK-MEL-5 melanoma = tested on: SK-MEL-5 melanoma
M14 melanoma = tested on: M14 melanoma
KM12 colon = tested on: KM12 colon
SK-MEL-28 melanoma = tested on: SK-MEL-28 melanoma
SNB-75 CNS = tested on: SNB-75 CNS
HOP-62 NSCLC = tested on: HOP-62 NSCLC
K-562 leukemia = tested on: K-562 leukemia
A498 renal = tested on: A498 renal
SN12C renal = tested on: SN12C renal
IGROV1 ovarian = tested on: IGROV1 ovarian
CAKI-1 renal = tested on: CAKI-1 renal
HL-60(TB) leukemia = tested on: HL-60(TB) leukemia
HCC-2998 colon = tested on: HCC-2998 colon
NCI-H522 lung = tested on: NCI-H522 lung
OVCAR-4 ovarian = tested on: OVCAR-4 ovarian
CCRF-CEM leukemia = tested on: CCRF-CEM leukemia
ACHN renal = tested on: ACHN renal
DU-145 prostate = tested on: DU-145 prostate
U251 CNS = tested on: U251 CNS
EKVX NSCLC = tested on: EKVX NSCLC
MDA-MB-435 = tested on: MDA-MB-435
MALME-3M melanoma = tested on: MALME-3M melanoma
A549 NSCLC = tested on: A549 NSCLC
SR leukemia = tested on: SR leukemia
UACC-257 melanoma = tested on: UACC-257 melanoma
HT29 colon = tested on: HT29 colon
NCI/ADR-RES ovarian = tested on: NCI/ADR-RES ovarian
786-0 renal = tested on: 786-0 renal
LOX IMVI melanoma = tested on: LOX IMVI melanoma
SW-620 colon = tested on: SW-620 colon
MDA-MB-231 breast = tested on: MDA-MB-231 breast
BT-549 breast = tested on: BT-549 breast
SF-539 CNS = tested on: SF-539 CNS
SF-295 CNS = tested on: SF-295 CNS
RPMI-8226 leukemia = tested on: RPMI-8226 leukemia
PC-3 prostate = tested on: PC-3 prostate
HOP-92 NSCLC = tested on: HOP-92 NSCLC
T-47D breast = tested on: T-47D breast
MOLT-4 leukemia = tested on: MOLT-4 leukemia
SK-OV-3 ovarian = tested on: SK-OV-3 ovarian
NCI-H226 lung = tested on: NCI-H226 lung
UO-31 renal = tested on: UO-31 renal
HS 578T breast = tested on: HS 578T breast
OVCAR-5 ovarian = tested on: OVCAR-5 ovarian
SNB-19 CNS = tested on: SNB-19 CNS
NCI-H460 lung = tested on: NCI-H460 lung
UACC-62 melanoma = tested on: UACC-62 melanoma
SK-MEL-2 melanoma = tested on: SK-MEL-2 melanoma
TK-10 renal = tested on: TK-10 renal
OVCAR-3 ovarian = tested on: OVCAR-3 ovarian
SF-268 CNS = tested on: SF-268 CNS
COLO 205 colon = tested on: COLO 205 colon
NCI-H23 lung = tested on: NCI-H23 lung

O=C(Nc1ccc(Cl)c(C(F)(F)F)c1)Nc1ccc2c(ccn2C(=O)c2cccc(F)c2)c1
GI50 (HCT-15 colon): 2.37 µM
TGI (HCT-15 colon): 9.7 µM
GI50 (HCT-116 colon): 3 µM
TGI (HCT-116 colon): 10.6 µM
GI50 (OVCAR-8 ovarian): 3.15 µM
TGI (OVCAR-8 ovarian): 17.9 µM
GI50 (RXF 393 renal): 1.74 µM
TGI (RXF 393 renal): 4.08 µM
GI50 (MCF7 breast): 2.12 µM
TGI (MCF7 breast): 7.66 µM
GI50 (SK-MEL-5 melanoma): 2.4 µM
TGI (SK-MEL-5 melanoma): 6.64 µM
GI50 (M14 melanoma): 3.22 µM
TGI (M14 melanoma): 16.8 µM
GI50 (KM12 colon): 2.83 µM
TGI (KM12 colon): 12 µM
GI50 (SK-MEL-28 melanoma): 3.37 µM
TGI (SK-MEL-28 melanoma): 19.6 µM
GI50 (SNB-75 CNS): 1.9 µM
TGI (SNB-75 CNS): 9.11 µM
GI50 (HOP-62 NSCLC): 2.45 µM
TGI (HOP-62 NSCLC): 7.81 µM
GI50 (K-562 leukemia): 3.15 µM
TGI (K-562 leukemia): 16.4 µM
GI50 (A498 renal): 2.67 µM
TGI (A498 renal): 9.86 µM
GI50 (SN12C renal): 3.1 µM
TGI (SN12C renal): 15.8 µM
GI50 (IGROV1 ovarian): 2.75 µM
TGI (IGROV1 ovarian): 10.6 µM
GI50 (CAKI-1 renal): 2.16 µM
TGI (CAKI-1 renal): 9.07 µM
GI50 (HL-60(TB) leukemia): 2.33 µM
TGI (HL-60(TB) leukemia): 7.82 µM
GI50 (HCC-2998 colon): 2.49 µM
TGI (HCC-2998 colon): 9.04 µM
GI50 (NCI-H522 lung): 2.42 µM
TGI (NCI-H522 lung): 7.67 µM
GI50 (OVCAR-4 ovarian): 2.98 µM
TGI (OVCAR-4 ovarian): > 100 µM
GI50 (CCRF-CEM leukemia): 3.78 µM
TGI (CCRF-CEM leukemia): > 100 µM
GI50 (ACHN renal): 2.56 µM
TGI (ACHN renal): 7.47 µM
GI50 (DU-145 prostate): 3.5 µM
TGI (DU-145 prostate): 48.8 µM
GI50 (U251 CNS): 3.01 µM
TGI (U251 CNS): 11.4 µM
GI50 (EKVX NSCLC): 2.2 µM
TGI (EKVX NSCLC): 7.8 µM
GI50 (MDA-MB-435): 2.84 µM
TGI (MDA-MB-435): 14.1 µM
GI50 (MALME-3M melanoma): 1.92 µM
TGI (MALME-3M melanoma): 5.87 µM
GI50 (A549 NSCLC): 2.9 µM
TGI (A549 NSCLC): 22.7 µM
GI50 (SR leukemia): 2.13 µM
TGI (SR leukemia): 9.12 µM
GI50 (UACC-257 melanoma): 2.44 µM
TGI (UACC-257 melanoma): 7.74 µM
GI50 (HT29 colon): 3.16 µM
TGI (HT29 colon): 50.8 µM
GI50 (NCI/ADR-RES ovarian): 2.5 µM
TGI (NCI/ADR-RES ovarian): 7.25 µM
GI50 (786-0 renal): 2.63 µM
TGI (786-0 renal): 11.1 µM
GI50 (LOX IMVI melanoma): 1.43 µM
TGI (LOX IMVI melanoma): 3.28 µM
GI50 (SW-620 colon): 3.5 µM
TGI (SW-620 colon): 35.8 µM
GI50 (MDA-MB-231 breast): 2.91 µM
TGI (MDA-MB-231 breast): 11 µM
GI50 (BT-549 breast): 2.61 µM
TGI (BT-549 breast): 8.98 µM
GI50 (SF-539 CNS): 2.71 µM
TGI (SF-539 CNS): 8.26 µM
GI50 (SF-295 CNS): 1.93 µM
TGI (SF-295 CNS): 4.76 µM
GI50 (RPMI-8226 leukemia): 2.78 µM
TGI (RPMI-8226 leukemia): 10.9 µM
GI50 (PC-3 prostate): 2.92 µM
TGI (PC-3 prostate): 33.5 µM
GI50 (HOP-92 NSCLC): 2.07 µM
TGI (HOP-92 NSCLC): 5.77 µM
GI50 (T-47D breast): 2.53 µM
TGI (T-47D breast): 9.11 µM
GI50 (MOLT-4 leukemia): 3.4 µM
TGI (MOLT-4 leukemia): > 100 µM
GI50 (SK-OV-3 ovarian): 2.79 µM
TGI (SK-OV-3 ovarian): 8.99 µM
GI50 (NCI-H226 lung): 2.46 µM
TGI (NCI-H226 lung): 7.5 µM
GI50 (UO-31 renal): 1.7 µM
TGI (UO-31 renal): 4.42 µM
GI50 (HS 578T breast): 2.8 µM
TGI (HS 578T breast): 8.55 µM
GI50 (OVCAR-5 ovarian): 4.86 µM
TGI (OVCAR-5 ovarian): 38.9 µM
GI50 (SNB-19 CNS): 3.18 µM
TGI (SNB-19 CNS): 14.1 µM
GI50 (NCI-H460 lung): 2.8 µM
TGI (NCI-H460 lung): 10 µM
GI50 (UACC-62 melanoma): 2.53 µM
TGI (UACC-62 melanoma): 15.3 µM
GI50 (SK-MEL-2 melanoma): 2.36 µM
TGI (SK-MEL-2 melanoma): 6.89 µM
GI50 (TK-10 renal): 2.91 µM
TGI (TK-10 renal): 36.5 µM
GI50 (OVCAR-3 ovarian): 2.16 µM
TGI (OVCAR-3 ovarian): 6.2 µM
GI50 (SF-268 CNS): 3.43 µM
TGI (SF-268 CNS): > 100 µM
GI50 (COLO 205 colon): 2.25 µM
TGI (COLO 205 colon): 5.57 µM

CCOP(=O)(OCC)OC[C@]12CCC(C)(C)C[C@H]1C1=CC[C@@H]3[C@@]4(C)C/C(=C\c5cccnc5)[C@H](OP(=O)(OCC)OCC)C(C)(C)[C@@H]4CC[C@@]3(C)[C@]1(C)CC2
GI50 (HCT-15 colon): 1.56 µM
TGI (HCT-15 colon): 3.43 µM
GI50 (HCT-116 colon): 1.25 µM
TGI (HCT-116 colon): 2.58 µM
GI50 (OVCAR-8 ovarian): 2.29 µM
TGI (OVCAR-8 ovarian): 6.52 µM
GI50 (RXF 393 renal): 1.19 µM
TGI (RXF 393 renal): 2.49 µM
GI50 (MCF7 breast): 1.37 µM
TGI (MCF7 breast): 3.04 µM
GI50 (SK-MEL-5 melanoma): 1.42 µM
TGI (SK-MEL-5 melanoma): 2.73 µM
GI50 (M14 melanoma): 1.8 µM
TGI (M14 melanoma): 3.7 µM
GI50 (SK-MEL-28 melanoma): 1.71 µM
TGI (SK-MEL-28 melanoma): 3.27 µM
GI50 (SNB-75 CNS): 1.6 µM
TGI (SNB-75 CNS): 3.91 µM
GI50 (NCI-H23 lung): 1.61 µM
TGI (NCI-H23 lung): 3.29 µM
GI50 (K-562 leukemia): 1.18 µM
TGI (K-562 leukemia): 3.53 µM
GI50 (A498 renal): 1.64 µM
TGI (A498 renal): 4.44 µM
GI50 (IGROV1 ovarian): 2.21 µM
TGI (IGROV1 ovarian): 5.61 µM
GI50 (CAKI-1 renal): 1.09 µM
TGI (CAKI-1 renal): 2.65 µM
GI50 (HL-60(TB) leukemia): 0.581 µM
TGI (HL-60(TB) leukemia): 2.3 µM
GI50 (HCC-2998 colon): 1.59 µM
TGI (HCC-2998 colon): 3.03 µM
GI50 (OVCAR-4 ovarian): 1.7 µM
TGI (OVCAR-4 ovarian): 4.37 µM
GI50 (CCRF-CEM leukemia): 1.77 µM
TGI (CCRF-CEM leukemia): 4 µM
GI50 (ACHN renal): 2.3 µM
TGI (ACHN renal): 7.14 µM
GI50 (DU-145 prostate): 1.75 µM
TGI (DU-145 prostate): 3.3 µM
GI50 (U251 CNS): 1.61 µM
TGI (U251 CNS): 3.2 µM
GI50 (MDA-MB-435): 1.6 µM
TGI (MDA-MB-435): 3.23 µM
GI50 (A549 NSCLC): 2 µM
TGI (A549 NSCLC): 5.59 µM
GI50 (SR leukemia): 1.02 µM
TGI (SR leukemia): 2.78 µM
GI50 (UACC-257 melanoma): 1.64 µM
TGI (UACC-257 melanoma): 4.06 µM
GI50 (HT29 colon): 1.52 µM
TGI (HT29 colon): 3.16 µM
GI50 (NCI/ADR-RES ovarian): 2.25 µM
TGI (NCI/ADR-RES ovarian): 6.05 µM
GI50 (786-0 renal): 1.86 µM
TGI (786-0 renal): 3.89 µM
GI50 (SW-620 colon): 1.79 µM
TGI (SW-620 colon): 3.61 µM
GI50 (SF-539 CNS): 1.73 µM
TGI (SF-539 CNS): 3.2 µM
GI50 (RPMI-8226 leukemia): 0.939 µM
TGI (RPMI-8226 leukemia): 3.33 µM
GI50 (PC-3 prostate): 0.727 µM
TGI (PC-3 prostate): 2.77 µM
GI50 (HOP-92 NSCLC): 1.22 µM
TGI (HOP-92 NSCLC): 2.9 µM
GI50 (T-47D breast): 1.58 µM
TGI (T-47D breast): 8.35 µM
GI50 (MOLT-4 leukemia): 0.715 µM
TGI (MOLT-4 leukemia): 2.42 µM
GI50 (SK-OV-3 ovarian): 2.1 µM
TGI (SK-OV-3 ovarian): 5.28 µM
GI50 (NCI-H226 lung): 1.44 µM
TGI (NCI-H226 lung): 3.13 µM
GI50 (UO-31 renal): 1.92 µM
TGI (UO-31 renal): 6.04 µM
GI50 (HS 578T breast): 2.06 µM
TGI (HS 578T breast): 5.38 µM
GI50 (OVCAR-5 ovarian): 1.79 µM
TGI (OVCAR-5 ovarian): 3.34 µM
GI50 (SNB-19 CNS): 1.66 µM
TGI (SNB-19 CNS): 3.14 µM
GI50 (NCI-H460 lung): 1.78 µM
TGI (NCI-H460 lung): 3.55 µM
GI50 (UACC-62 melanoma): 1.28 µM
TGI (UACC-62 melanoma): 2.88 µM
GI50 (TK-10 renal): 2.68 µM
TGI (TK-10 renal): 6.32 µM
GI50 (OVCAR-3 ovarian): 1.68 µM
TGI (OVCAR-3 ovarian): 3.39 µM
GI50 (COLO 205 colon): 1.57 µM
TGI (COLO 205 colon): 3.32 µM
